From ChEMBL document CHEMBL5131521, “The N,N,O-Trisubstituted Hydroxylamine Isostere and Its Influence on Lipophilicity and Related Parameters” (ACS Med Chem Lett, 2022)
In brackets after ≈: the same amount, converted by molar mass.

What was measured:
[1] = Lipophilicity, logD of compound at pH 7.4 by shake flask method; format: physicochemical; settings: buffer
[2] = Lipophilicity, logP of the compound by LC/UV/MS analysis; format: physicochemical; settings: octanol/water
[3] = Metabolic stability in human liver microsomes assessed as compound remaining at 1 uM measured upto 60 mins in presence of NADPH for 15 mins by LC-MS/MS analysis; format: ADME, Microsome; settings: for Stability: microsomes, 1 h, 1 µM; for remaining at 1 h, 1 µM: liver microsomes, read-out: Stability
[4] = Metabolic stability in human liver microsomes assessed as half life at 1 uM measured upto 60 mins by LC-MS/MS analysis; format: ADME, Microsome; settings: for t1/2: microsomes, 1 h, 1 µM; for half-life at 1 µM: liver microsomes
[5] = Metabolic stability in mouse liver microsomes assessed as compound remaining at 1 uM measured upto 60 mins in presence of NADPH for 15 mins by LC-MS/MS analysis; format: ADME, Microsome; settings: for remaining at 1 h, 1 µM: liver microsomes, read-out: Stability; for Stability: microsomes, 1 h, 1 µM
[6] = Plasma protein binding in human assessed as free fraction at 1 mM by equilibrium dialysis assay; format: ADME, cell-free
[7] = Aqueous solubility of compound in pH 7.4 phosphate buffer; format: physicochemical
[8] = Metabolic stability in mouse liver microsomes assessed as half life at 1 uM measured upto 60 mins by LC-MS/MS analysis; format: ADME, Microsome; settings: for half-life at 1 µM: liver microsomes; for t1/2: microsomes, 1 h, 1 µM
[9] = Metabolic stability in human liver microsomes assessed as intrinsic clearance at 1 uM measured upto 60 mins by LC-MS/MS analysis; format: ADME, Microsome; settings: 1 h
[10] = Metabolic stability in mouse liver microsomes assessed as intrinsic clearance at 1 uM measured upto 60 mins by LC-MS/MS analysis; format: ADME, Microsome; settings: 1 h
[11] = Metabolic stability in mouse liver microsomes at 1 uM measured upto 60 mins by LC-MS/MS analysis; format: ADME, Microsome; settings: 1 h
HepG2 = assay: Cytotoxicity against human HepG2 cells assessed as inhibition of cell growth incubated for 3 days by trypan blue assay; format: functional, cell-based; settings: HepG2, 72 h

logD [1]	logP [2]	fraction unbound [6]	solubility [7] [µM]	SMILES	other results
1	5.1			c1ccc(CCCN2CCCCC2)cc1	
3	4.8			c1ccc(COCCCON2CCCCC2)cc1	
3.2	4.8			c1ccc(CCON2CCCCC2)cc1	
2.4	5	0.341	> 300	c1ccc2c(c1)CCCN2OCCN1CCN(C2CCCCC2)CC1	Stability [3]: 48.07%; t1/2 [4]: 13.74 min; remaining at 1 h, 1 µM [5]: 4.32%; half-life at 1 µM [8]: 3.19 min
	6.6			c1ccc(CCCC2CCCCC2)cc1	
2.7	5	0.322	287 (≈ 98.3 µg/mL)	c1ccc2c(c1)CCCC2OCCN1CCN(C2CCCCC2)CC1 (stereo not given)	Stability [3]: 17.01%; t1/2 [4]: 5.67 min; remaining at 1 h, 1 µM [5]: 3.98%; half-life at 1 µM [8]: 3.12 min
	6.2			c1ccc(CCOC2CCCCC2)cc1	
	6.6			CCCCCOC1CCc2ccccc2C1 (stereo not given)	
	6.2			c1ccc(COCCCOC2CCCCC2)cc1	
1.3	2.3	0.573	273 (≈ 68.6 µg/mL)	COc1ccccc1OCCCN1CCOCC1	remaining at 1 h, 1 µM [3]: 91%; half-life at 1 µM [4]: > 300 min; CLint [9]: < 5 µL/min/mg; remaining at 1 h, 1 µM [5]: 10.2%; CLint [10]: 315 µL/min/mg; half-life at 1 µM [8]: 4.4 min
0.9	5.8			c1ccc(COCCCCN2CCCCC2)cc1	
1.3	2.1	0.625	293 (≈ 74.2 µg/mL)	COc1ccccc1OCCON1CCOCC1	Stability [3]: 91.54%; t1/2 [4]: 98.54 min; CLint [9]: 14 µL/min/mg; Stability [5]: 36.43%; CLint [10]: 129 µL/min/mg; t1/2 [8]: 10.75 min
1.8	5.3	0.153	275 (≈ 93.9 µg/mL)	c1ccc2c(c1)CCCN2CCCN1CCN(C2CCCCC2)CC1	remaining at 1 h, 1 µM [3]: 13.7%; half-life at 1 µM [4]: 5.06 min; remaining at 1 h, 1 µM [5]: 8.5%; half-life at 1 µM [8]: 4.07 min
	6.6			c1ccc(COCCCCC2CCCCC2)cc1	
3.3	5.3			CCCCCCN1CCc2ccccc2C1	
	3.4	0.106	244 (≈ 61.1 µg/mL)	COc1ccccc1OCCCC1CCOCC1	Stability [3]: 50.46%; t1/2 [4]: 18.07 min; CLint [9]: 77 µL/min/mg; Stability ([5]; BLD = below limit of detection): Bld; Stability [11]: Unstable
4.7	5.9			CCCCCON1CCc2ccccc2C1	
	2.1	0.544	275 (≈ 69.4 µg/mL)	COc1ccccc1OCCOC1CCOCC1	Stability [3]: 82.92%; t1/2 [4]: 83.41 min; CLint [9]: 17 µL/min/mg; Stability [5]: 24.08%; CLint [10]: 196 µL/min/mg; t1/2 [8]: 7.06 min
	7.9			CCCCCCC1CCc2ccccc2C1 (stereo not given)	
3.9	6.2	0.0519	288 (≈ 98.1 µg/mL)	c1ccc2c(c1)CCCC2CCCN1CCN(C2CCCCC2)CC1 (stereo not given)	remaining at 1 h, 1 µM [3]: 13.6%; half-life at 1 µM [4]: 5.04 min; CLint [9]: 275 µL/min/mg; remaining at 1 h, 1 µM [5]: 3.7%; CLint [10]: 455 µL/min/mg; half-life at 1 µM [8]: 3.05 min
				O=C(CCCCCCC(=O)Nc1ccccc1)NO [VORINOSTAT]	IC50 (HepG2): 3.2 ng/mL (≈ 0.0121 µM)
